Columns and labels:
Assay type in all cases: in vivo
[1] = Bathing toxicity in goldfish; conditions: fresh water; goldfish, bathing for 5 days, 27° to 30°C; read-out: LC50 (50% lethal concentration)
Experimental: (§1) Groups of goldfish each weighing 7 to 8 g (each group consisting of 6 goldfish) were placed in 6 liters of fresh water (27° to 30°C.) containing PA in varying concentrations with aeration for 5 days. During this time, observation was made.

goldfish [2] = assay: Bathing toxicity in goldfish; conditions: for Mortality: 5 days; for Number of the survival after 1 day / Number of the survival after 2 days / Number of the survival after 3 days / Number of the survival after 4 days / Number of the survival after 5 days: day 0: 6 fish
Experimental: as §1

goldfish [3] = assay: Oral toxicity in goldfish; conditions: 10% in diet (PA 800, AT-1493 955, AT-1557 935, AT-1475 923 mg/kg)
Experimental: A diet containing 10% of each of the test compounds was given orally to groups each consisting of 5 goldfish each weighing 6 to 10 g, and observation was made for the following 7 days. The temperature of the water was maintained at 28°C.

CCn1cc(C(=O)O)c(=O)c2cnc(N3CCCC3)nc21 [PA, 5,8-dihydro-2-pyrrolidino-8-ethyl-5-oxopyrido[2,3-d]pyrimidine-6-carboxylic acid]
100%: Mortality (goldfish [2]; bathing conc. 16 μg/ml)
20%: Mortality (goldfish [2]; bathing conc. 8 μg/ml)
0: Number of the survival after 4 days (goldfish [2]; bathing conc. 16 μg/ml)
5: Number of the survival after 3 days (goldfish [2]; bathing conc. 8 μg/ml) | Number of the survival after 4 days (goldfish [2]; bathing conc. 8 μg/ml) | Number of the survival after 5 days (goldfish [2]; bathing conc. 8 μg/ml) | Number of the survival after 1 day from administration (goldfish [3]; day 0: 5 fish) | Number of the survival after 2 days from administration (goldfish [3]; day 0: 5 fish) | Number of the survival after 3 days from administration (goldfish [3]; day 0: 5 fish) | Number of the survival after 4 days from administration (goldfish [3]; day 0: 5 fish) | Number of the survival after 5 days from administration (goldfish [3]; day 0: 5 fish) | Number of the survival after 6 days from administration (goldfish [3]; day 0: 5 fish) | Number of the survival after 7 days from administration (goldfish [3]; day 0: 5 fish)
1: Number of the survival after 3 days (goldfish [2]; bathing conc. 16 μg/ml)
6: Number of the survival after 1 day (goldfish [2]; bathing conc. 4 μg/ml) | Number of the survival after 2 days (goldfish [2]; bathing conc. 4 μg/ml) | Number of the survival after 3 days (goldfish [2]; bathing conc. 4 μg/ml) | Number of the survival after 4 days (goldfish [2]; bathing conc. 4 μg/ml) | Number of the survival after 5 days (goldfish [2]; bathing conc. 4 μg/ml) | Number of the survival after 1 day (goldfish [2]; bathing conc. 8 μg/ml) | Number of the survival after 2 days (goldfish [2]; bathing conc. 8 μg/ml) | Number of the survival after 1 day (goldfish [2]; bathing conc. 16 μg/ml) | Number of the survival after 2 days (goldfish [2]; bathing conc. 16 μg/ml)
0%: Mortality (goldfish [2]; bathing conc. 4 μg/ml) | Mortality (goldfish [3]; 7 days)
10.1 µg/mL: LC50 at 120 h [1]

— patent US3981999A, “Fish disease treatment” (Dainippon Pharmaceutical Co., Ltd., priority 1973, dated 1976)
